Results from US10208074B2, “Pyrazole compounds and method for making and using the compounds” (Rigel Pharmaceuticals, Inc., priority 2015, dated 2019).
pEC50: −log10 of the molar value. Counter-ions that a name gives are not always drawn. Like-named read-outs stand apart in the source and are kept apart here.

Key:
IL-23 (p19/p40) = experiment: IL23-p19 ELISA, Dendritic, LPS (compound screening using DC cells); format: cell-based, Human; conditions: PBMC-derived DC cells, IFNγ primed, LPS 1 μg/ml, 18 hours, 10 pt, read-out: IL23-p19 ELISA, Dendritic, LPS, 10 pt, EC50
Procedure, shortened: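 Human PBMC-derived dendritic cells (7 d GM-CSF 100 ng/ml + IL-4 20 ng/ml), primed 24 h with IFNγ 50 ng/ml, pre-incubated 1 h with compound, then stimulated 18 h with LPS 1 μg/ml. Supernatant IL-23 measured by p19-capture/p40-detection chemiluminescent ELISA; CellTiter Glo checks cytotoxicity.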

IL-23p19 = experiment: LPS induced IL23p19 in THP-1 cells (with IFNγ primed) assay; format: cell-based, Human; conditions: THP-1 cells, IFNγ primed, LPS 1 ug/mL, 18 hours, 10 pt, read-out: IL23-p19 ELISA, THP1-IFNy, LPS, 10 pt EC50
Procedure, shortened: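 THP-1 cells primed ~18 h with IFNγ (50 ng/mL), pre-incubated 1 h with compound at 37 °C, then stimulated 18 h with LPS (1 ug/mL final). Supernatant IL-23p19 measured by sandwich ELISA with chemiluminescent read-out; EC50 from curve fitting. Toxicity checked on the remaining cells by Cell Titer Glo.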

SMILES | pEC50 (IL-23 (p19/p40); Homo sapiens, 18 h) | pEC50 (IL-23p19; Homo sapiens, THP-1, 18 h) | other results
CCO[C@H]1C[C@H](n2cc(NC(=O)c3ccc(-c4cn[nH]c4)o3)c(-c3ccccn3)n2)C1 [Compound I-27, N-(1-((1,3-trans)-3-ethoxycyclobutyl)-3-(pyridin-2-yl)-1H-pyrazol-4-yl)-5-(1H-pyrazol-4-yl)furan-2-carboxamide] | 7.80 | 6.80 | 
O=C(Nc1cn(C2CCOC2)nc1-c1nccs1)c1ccc(-c2cn[nH]c2)o1 (centres unmarked) [Compound I-120, 5-(1H-pyrazol-4-yl)-N-(1-(tetrahydrofuran-3-yl)-3-(thiazol-2-yl)-1H-pyrazol-4-yl)furan-2-carboxamide formate] | 7.02 | 7.28 | 
COCCOCCn1cc(NC(=O)c2ccc(-c3cn[nH]c3)o2)c(-c2ccccn2)n1 [Compound I-17, N-(1-(2-(2-methoxyethoxy)ethyl)-3-(pyridin-2-yl)-1H-pyrazol-4-yl)-5-(1H-pyrazol-4-yl)furan-2-carboxamide hydrochloride salt] |  |  | pEC50 (IL-23 (p19/p40); hydrochloride salt): 6.37; pEC50 (IL-23p19; hydrochloride salt): 6.55
COCCn1cc(NC(=O)c2ccc(-c3cnn(COP(=O)(O)O)c3)o2)c(-c2ccccn2)n1 [Compound I-12, (4-(5-((1-(2-methoxyethyl)-3-(pyridin-2-yl)-1H-pyrazol-4-yl)carbamoyl)furan-2-yl)-1H-pyrazol-1-yl)methyl dihydrogen phosphate] | 5.98 | 6.23 | 
CCOCCn1cc(NC(=O)c2ccc(-c3c[nH]nc3C)o2)c(-c2ccccn2)n1 [Compound I-56, N-(1-(2-ethoxyethyl)-3-(pyridin-2-yl)-1H-pyrazol-4-yl)-5-(3-methyl-1H-pyrazol-4-yl)furan-2-carboxamide formate] | 5.11 | 6.81 | 
CCN(CC)CCn1cc(NC(=O)c2csc(-c3cn[nH]c3)n2)c(-c2ccccn2)n1 [II-49, N-(1-(2-(diethylamino)ethyl)-3-(pyridin-2-yl)-1H-pyrazol-4-yl)-2-(1H-pyrazol-4-yl)thiazole-4-carboxamide] |  |  | pEC50 (IL-23 (p19/p40)): 7.09; pEC50 (IL-23p19): 6.62
CCOCCn1cc(NC(=O)c2ccc(-c3cnn(CC)c3)o2)c(-c2ccccn2)n1 [Compound I-39, N-(1-(2-ethoxyethyl)-3-(pyridin-2-yl)-1H-pyrazol-4-yl)-5-(1-ethyl-1H-pyrazol-4-yl)furan-2-carboxamide formate] | 5.36 | 5.71 | 
O=C(Nc1cn(C2CCOCC2)nc1-c1nccs1)c1ccc(-c2cn[nH]c2)o1 [Compound I-60, 5-(1H-pyrazol-4-yl)-N-(1-(tetrahydro-2H-pyran-4-yl)-3-(thiazol-2-yl)-1H-pyrazol-4-yl)furan-2-carboxamide formate] |  |  | pEC50 (IL-23 (p19/p40); formate): 7.47; pEC50 (IL-23p19; formate): 6.76
O=C(Nc1cn(CCN2CCOCC2)nc1-c1ccccn1)c1ccc(-c2cn[nH]c2)o1 [Compound I-111, N-(1-(2-morpholinoethyl)-3-(pyridin-2-yl)-1H-pyrazol-4-yl)-5-(1H-pyrazol-4-yl)furan-2-carboxamide] | 7.57 | 7.54 | 
CCO[C@H]1C[C@@H](n2cc(NC(=O)c3csc(-c4cnn(COP(=O)(O)O)c4)n3)c(-c3ccccn3)n2)C1 [II-77, (4-(4-((1-((1,3-cis)-3-ethoxycyclobutyl)-3-(pyridin-2-yl)-1H-pyrazol-4-yl)carbamoyl)thiazol-2-yl)-1H-pyrazol-1-yl)methyl phosphate bis-potassium salt] |  |  | pEC50 (IL-23 (p19/p40); phosphate bis-potassium salt): 6.84; pEC50 (IL-23p19; phosphate bis-potassium salt): 6.83
Cn1cc(NC(=O)c2csc(-c3cnn(COP(=O)(O)O)c3)n2)c(-c2ccccn2)n1 [II-35, (4-(4-((1-methyl-3-(pyridin-2-yl)-1H-pyrazol-4-yl)carbamoyl)thiazol-2-yl)-1H-pyrazol-1-yl)methyl dihydrogen phosphate] | 6.53 | 6.69 | 
COCCn1cc(NC(=O)c2ccc(-c3cn[nH]c3)o2)c(-c2ccccn2)n1 [Compound I-5, N-(1-(2-methoxyethyl)-3-(pyridin-2-yl)-1H-pyrazol-4-yl)-5-(1H-pyrazol-4-yl)furan-2-carboxamide] | 6.87 | 7.08 | 
O=C(Nc1cn(C(F)F)nc1-c1ccccn1)c1ccc(-c2cn[nH]c2)o1 [Compound I-115, N-(1-(difluoromethyl)-3-(pyridin-2-yl)-1H-pyrazol-4-yl)-5-(1H-pyrazol-4-yl)furan-2-carboxamide] | 6.44 | 7.04 | 

Continued, in another order:

pEC50 (IL-23 (p19/p40); Homo sapiens, 18 h) | pEC50 (IL-23p19; Homo sapiens, THP-1, 18 h) | SMILES | other results
7.49 | 7.51 | O=C(Nc1cn(C2CCC3(CC2)OCCO3)nc1-c1ncccc1F)c1csc(-c2cn[nH]c2)n1 [II-140, N-(3-(3-fluoropyridin-2-yl)-1-(1,4-dioxaspiro[4.5]decan-8-yl)-1H-pyrazol-4-yl)-2-(1H-pyrazol-4-yl)thiazole-4-carboxamide] | 
6.67 | 6.96 | O=C(Nc1cn(CCOCCF)nc1-c1ccccn1)c1csc(-c2cn[nH]c2)n1 [II-118, N-(1-(2-(2-fluoroethoxy)ethyl)-3-(pyridin-2-yl)-1H-pyrazol-4-yl)-2-(1H-pyrazol-4-yl)thiazole-4-carboxamide] | 
7.62 | 7.89 | O=C(Nc1cn([C@H]2C[C@@H](O)C2)nc1-c1cccc(F)n1)c1csc(-c2cn[nH]c2)n1 [II-172, N-(3-(6-fluoropyridin-2-yl)-1-((cis)-3-hydroxycyclobutyl)-1H-pyrazol-4-yl)-2-(1H-pyrazol-4-yl)thiazole-4-carboxamide] | 
6.72 | 6.89 | COCCOCCn1cc(NC(=O)c2csc(-c3cn[nH]c3)n2)c(-c2ccccn2)n1 [II-37, N-(1-(2-(2-methoxyethoxy)ethyl)-3-(pyridin-2-yl)-1H-pyrazol-4-yl)-2-(1H-pyrazol-4-yl)thiazole-4-carboxamide] | 
7.20 | 6.56 | COCCn1cc(NC(=O)c2csc(-c3cn[nH]c3)n2)c(-c2ccccn2)n1 [II-28, N-(1-(2-methoxyethyl)-3-(pyridin-2-yl)-1H-pyrazol-4-yl)-2-(1H-pyrazol-4-yl)thiazole-4-carboxamide] | 
7.11 | 7.18 | CCO[C@H]1CC[C@H](n2cc(NC(=O)c3csc(-c4cn[nH]c4)n3)c(-c3ccccn3)n2)CC1 [II-145, N-(1-((trans)-4-ethoxycyclohexyl)-3-(pyridin-2-yl)-1H-pyrazol-4-yl)-2-(1H-pyrazol-4-yl)thiazole-4-carboxamide] | 
6.97 |  | CCN(CC)CCn1cc(NC(=O)c2csc(-c3cn[nH]c3)n2)c(-c2ccccn2)n1 [II-117, N-(1-(2-(diethylamino)ethyl)-3-(pyridin-2-yl)-1H-pyrazol-4-yl)-2-(1H-pyrazol-4-yl)thiazole-4-carboxamide] | pEC50 (IL-23p19): 7.25
7.41 | 7.57 | CCO[C@H]1C[C@@H](n2cc(NC(=O)c3csc(-c4cn[nH]c4)n3)c(-c3cccc(F)n3)n2)C1 [II-160, N-(1-((cis)-3-ethoxycyclobutyl)-3-(6-fluoropyridin-2-yl)-1H-pyrazol-4-yl)-2-(1H-pyrazol-4-yl)thiazole-4-carboxamide] | 
5.64 | 5.82 | COc1ccc(Cn2cc(-c3nc(C(=O)Nc4cn(CC(O)(C(F)(F)F)C(F)(F)F)nc4-c4ccccn4)cs3)cn2)cc1 [II-107, 2-(1-(4-methoxybenzyl)-1H-pyrazol-4-yl)-N-(3-(pyridin-2-yl)-1-(3,3,3-trifluoro-2-hydroxy-2-(trifluoromethyl)propyl)-1H-pyrazol-4-yl)thiazole-4-carboxamide] | 
6.24 | 6.50 | CCOCCn1cc(NC(=O)c2csc(-c3c[nH]nc3C)n2)c(-c2ccccn2)n1 [II-21, N-(1-(2-ethoxyethyl)-3-(pyridin-2-yl)-1H-pyrazol-4-yl)-2-(3-methyl-1H-pyrazol-4-yl)thiazole-4-carboxamide, formic acid salt] | 
6.80 | 7.36 | O=C(Nc1cn(C2CCOC2)nc1-c1nccs1)c1csc(-c2cn[nH]c2)n1 (centres unmarked) [II-115, 2-(1H-pyrazol-4-yl)-N-(1-(tetrahydrofuran-3-yl)-3-(thiazol-2-yl)-1H-pyrazol-4-yl)thiazole-4-carboxamide] | 
6.41 | 7.02 | O=C(Nc1cn(C(F)F)nc1-c1ccccn1)c1csc(-c2cn[nH]c2)n1 [II-88, N-(1-(difluoromethyl)-3-(pyridin-2-yl)-1H-pyrazol-4-yl)-2-(1H-pyrazol-4-yl)thiazole-4-carboxamide] | 
